Where two headings read alike, the source gives them in different places.
Assays:
[1] = tested on: Septoria tritici; assay: Microtest: activity against leaf blotch on wheat caused by Septoria tritici (Septtr); type: cell-based; conditions: relative growth vs active compound-free control (100%), 7 days after inoculation
[2] = tested on: Pyriculana oryzae; type: cell-based; conditions: relative growth vs control (100%), 7 days after inoculation
[3] = tested on: Pyrenophora teres; assay: Microtiter test: activity against net blotch Pyrenophora teres on barley (Pyrnte); type: cell-based
Description: M3 Activity against net blotch Pyrenophora teres on barley in the microtiter test ([…] stock solutions were mixed according to the ratio, pipetted onto a micro titer plate (MTP) and diluted with water to the stated concentrations. A spore suspension of Pyrenophora teres in an aqueous biomalt or yeast-bactopeptone-glycerine solution was then added. The plates were placed in a water vapor-saturated chamber at a temperature of 18° C. Using an absorption photometer, the MTPs were measured at 405 nm 7 days after the inoculation. The measured parameters were compared to the growth of the active compound-free control variant (100%) and the fungus-free and active compound-free blank value to determine the relative growth in % of the pathogens in the respective active compounds.

[4] = tested on: Septoria tritici; assay: Green house: curative control of leaf blotch on wheat caused by Septoria tritici (Septtr K7); type: in vivo; conditions: sprayed 7 days after inoculation, % diseased leaf area, untreated control 80
Description: The spray solutions were prepared in several steps: The stock solution were prepared: a mixture of acetone and/or dimethylsulfoxide and the wetting agent/emulsifier Wettol, which is based on ethoxylated alkylphenoles, in a relation (volume) solvent-emulsifier of 99 to 1 was added to 25 mg of the compound to give a total of 5 ml. Water was then added to total volume of 100 ml. This stock solution was diluted with the described solvent-emulsifier-water mixture to the given concentration. G1 Curative control of leaf blotch on wheat caused by Septoria tritici (Septtr K7) Leaves of pot-grown wheat seedling were inoculated with an aqueous spore suspension of Septoria tritici. Then the trial plants were immediately transferred to a humid chamber at 18-22° C. and a relative humidity close to 100%. After 4 days the plants were transferred to a chamber with 18-22° C. and a relative humidity close to 70%. Seven days after inoculation the plants were sprayed to run-off with an aqueous suspension of the active compound or their mixture, prepared as described. Then the plants were transferred back to the chamber with 18-22° C. and a relative humidity close to 70%. After 4 weeks the extent of fungal attack on the leaves was visually assessed as % diseased leaf area.

Structure (SMILES)	Growth 0 (%) at 0.002 ppm Septtr [1] [%]	Growth (%) at 2 ppm Pyrior [2] [%]	Growth (%) at 8 ppm Pymte [3] [%]	Growth (%) at 0.5 ppm Pyrior [2] [%]	Disease (%) at 250 ppm Septtr K7 [4] [%]	Growth (%) at 8 ppm Pymte ([3]; relative growth vs control (100%), 7 days after inoculation) [%]
COC(Cn1cncn1)c1ccc(Oc2ccc(Cl)cc2)cc1Cl (stereo not shown)	72	–	–	–	–	–
CC(O)(Cn1cncn1)c1ccc(Oc2ccc(Cl)cc2)cc1Cl (stereo not shown)	–	23	62	–	–	–
CCC(Cn1cncn1)(OC)c1ccc(Oc2ccc(Cl)cc2)cc1Cl (stereo not shown)	–	–	39	47	–	–
COC(Cn1cncn1)(c1ccc(Oc2ccc(Cl)cc2)cc1Cl)C1CC1 (stereo not shown) [I-1, 1-[2-[2-chloro-4-(4-chlorophenoxy)phenyl]-2-cyclopropyl-2-methoxy-ethyl]-1,2,4-triazole]	10	0	–	21	1	12
